Earlier results in patent US20200209238A1, “OPTIMIZING DIAGNOSTICS FOR GALACTOFURANOSE CONTAINING ANTIGENS” (The Johns Hopkins University, priority 2017, published 2020).

Biological target: T1, hINTL-1 (Homo sapiens, UniProt Q8WWA0)
T1 construct: from tissue; host or cells: human urine
T1 sequence (Q8WWA0 19-298): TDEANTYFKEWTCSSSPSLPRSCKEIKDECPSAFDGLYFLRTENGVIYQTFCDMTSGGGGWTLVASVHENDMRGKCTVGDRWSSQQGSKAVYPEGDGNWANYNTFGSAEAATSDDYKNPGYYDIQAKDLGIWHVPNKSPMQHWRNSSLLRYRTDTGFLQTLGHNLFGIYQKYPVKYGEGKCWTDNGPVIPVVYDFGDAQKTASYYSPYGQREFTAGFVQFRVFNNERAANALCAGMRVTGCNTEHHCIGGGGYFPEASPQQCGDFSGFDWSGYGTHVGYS

For `CC(=O)N[C@H]1[C@H]([C@H](O)[C@H](O)CO)OC(O)(C(=O)O)C[C@@H]1O` (stereo partly shown) [N-Acetylneuraminic acid (Neu5Ac), N-Acetylneuraminic acid], the “binding to hIntL-1” value is given as “does not bind”.
